Measured values reported in publication PMC6007841 (Journal of medicinal chemistry, 2018).
“Also recorded” adds a separate entry of the source. Where two headings read alike, the source gives them in different places. Bridge positions count the residues as written; N and C are the ends. Ends that are not written are not given here.

Key:
male Wistar rats [1] = conditions: 7 μg (1.2 nmol) ICV at the onset of a 24 h fast, vs vehicle; cited from earlier work
hMC1R [2] = target: T1, hMC1R (Homo sapiens, UniProt Q01726); conditions: transiently transfected HEK293 cells, Eu-NDP-MSH, 2 h incubation; cited from earlier work
T1 sequence (Q01726 whole entry): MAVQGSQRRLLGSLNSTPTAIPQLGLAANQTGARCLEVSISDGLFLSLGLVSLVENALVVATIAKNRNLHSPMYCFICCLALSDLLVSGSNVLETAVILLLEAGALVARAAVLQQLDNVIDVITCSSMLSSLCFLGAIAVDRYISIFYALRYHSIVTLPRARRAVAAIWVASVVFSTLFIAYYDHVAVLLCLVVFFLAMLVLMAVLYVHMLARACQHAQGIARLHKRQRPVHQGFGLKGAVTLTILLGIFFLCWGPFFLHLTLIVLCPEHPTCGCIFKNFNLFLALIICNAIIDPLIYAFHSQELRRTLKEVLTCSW

hMC4R [3] = target: T2, hMC4R (Homo sapiens, UniProt P32245); experiment: cAMP AlphaScreen agonist assay, hMC4R; conditions: hMC4R; up to 100 μM; HEK293 cells, cAMP
T2 sequence (P32245 whole entry): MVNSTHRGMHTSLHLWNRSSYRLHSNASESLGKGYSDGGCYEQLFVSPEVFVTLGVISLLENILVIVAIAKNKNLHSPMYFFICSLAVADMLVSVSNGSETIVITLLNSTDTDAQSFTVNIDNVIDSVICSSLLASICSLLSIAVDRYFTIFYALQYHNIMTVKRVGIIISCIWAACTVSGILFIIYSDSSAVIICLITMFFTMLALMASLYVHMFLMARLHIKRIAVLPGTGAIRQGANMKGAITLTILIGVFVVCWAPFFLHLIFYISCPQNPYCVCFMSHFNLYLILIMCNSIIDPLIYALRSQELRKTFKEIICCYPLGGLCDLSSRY

mMC5R = mMC5R (Mus musculus, UniProt P41149); experiment: cAMP AlphaScreen agonist assay, mMC5R; conditions: mMC5R; up to 100 μM; HEK293 cells, cAMP
Sequence of mMC5R (P41149 whole entry): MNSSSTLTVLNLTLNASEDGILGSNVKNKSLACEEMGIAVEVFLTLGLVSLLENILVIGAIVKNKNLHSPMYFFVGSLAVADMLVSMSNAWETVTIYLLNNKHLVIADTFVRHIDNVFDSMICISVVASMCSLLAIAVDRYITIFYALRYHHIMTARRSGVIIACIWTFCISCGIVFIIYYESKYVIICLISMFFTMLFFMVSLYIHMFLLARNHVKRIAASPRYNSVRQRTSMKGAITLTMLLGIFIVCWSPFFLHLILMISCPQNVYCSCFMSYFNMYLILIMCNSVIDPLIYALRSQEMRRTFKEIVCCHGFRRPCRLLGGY

male Wistar rats [4] = conditions: ad libitum; adult male Wistar rats; up to 2 nmol; cited from earlier work
hMC4R [5] = target: T2, hMC4R; conditions: transiently transfected HEK293 cells, Eu-NDP-MSH, 2 h incubation; cited from earlier work
hMC4R [6] = target: T2, hMC4R; experiment: Competitive displacement binding, [125I]-NDP-MSH, hMC4R; conditions: 100 μM, stably expressing HEK293 cells, 1 h incubation
mMC1R = mMC1R (Mus musculus, UniProt Q01727); experiment: cAMP AlphaScreen agonist assay, mMC1R; conditions: mMC1R; up to 100 μM; HEK293 cells, cAMP
Sequence of mMC1R (Q01727 whole entry): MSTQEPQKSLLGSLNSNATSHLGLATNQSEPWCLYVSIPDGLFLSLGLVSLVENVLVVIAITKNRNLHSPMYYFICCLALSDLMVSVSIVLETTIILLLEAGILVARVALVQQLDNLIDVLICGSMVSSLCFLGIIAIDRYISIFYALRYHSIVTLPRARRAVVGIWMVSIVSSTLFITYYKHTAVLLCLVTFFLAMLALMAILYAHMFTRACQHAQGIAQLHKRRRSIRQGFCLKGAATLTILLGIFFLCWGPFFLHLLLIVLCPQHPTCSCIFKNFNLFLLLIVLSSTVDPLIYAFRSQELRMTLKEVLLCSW

MC1R [7] = conditions: primary melanocytes, cited from earlier work
hMC1R [8] = target: T1, hMC1R; conditions: human MC1R; HEK293 cells; cited from earlier work
MC1R [9] = conditions: cited from earlier work
MC1R [10] = conditions: B16 cells, cited from earlier work
hMC1R [11] = target: T1, hMC1R; experiment: cAMP AlphaScreen agonist assay, hMC1R; conditions: hMC1R; up to 100 μM; HEK293 cells, cAMP

Question: With “GIINTLQKYYCRVRGGRCAVLSCLPKEEQIGKCSTRGRKCCRRKK (disulfide 11-40, 18-33, 23-41) [hBD3]” as the sequence, how does the Body weight (male Wistar rats [1]) read?
Answer: The Body weight was “decreased weight gain; also recorded: slower return to pre-fast weight”.

Question: And the Food intake (male Wistar rats [1])?
Answer: The Food intake was “decrease food intake; also recorded: significant decreases in food intake; also recorded: consumed less food”.

Question: What about the Binding affinity (hMC1R [2]) of the same sequence?
Answer: Its Binding affinity is 42 nM.

Question: And the “Agonist efficacy (in words)” value (hMC4R [3])?
Answer: The value was “Full agonist activity”.

Question: And the “Agonist efficacy (in words)” value (mMC5R)?
Answer: Its value is “Full agonist activity”.

Question: What about the “Food intake or body weight change” value (male Wistar rats [4]) of the same sequence?
Answer: The value was “does not result in a statistical change in food intake or body weight change”.

Question: And the Binding affinity (hMC4R [5])?
Answer: Its Binding affinity is 110 nM.

Question: And the “Displacement of radiolabeled NDP-MSH at 100 μM” value (hMC4R [6])?
Answer: The value was 50%.

Question: What about the “Agonist efficacy (in words)” value (mMC1R) of the same sequence?
Answer: The value was “Full agonist activity”.

Question: And the “Effect on α-MSH induction of cAMP” value (MC1R [7]; 100 nM)?
Answer: The value was “lower the agonist induction of cAMP”.

Question: What about the cAMP signal (MC1R [7]; up to 100 nM) of the same sequence?
Answer: Its cAMP signal is “no cAMP signal”.

Question: What about the Binding affinity (hMC1R [8]) of the same sequence?
Answer: Its Binding affinity is 13.8 nM.

Question: And the “Effect on NDP-MSH induction of cAMP” value (MC1R [9]; HEK293 cells expressing the MC1R, 100 nM)?
Answer: Its value is “lower the agonist induction of cAMP”.

Question: And the “cAMP response vs maximal response of 1 nM NDP-MSH” value (MC1R [9]; HEK293 cells expressing the MC1R, 300 nM)?
Answer: Its value is “lower than the maximal response of 1 nM NDP-MSH”.

Question: What about the cAMP levels (MC1R [9]; HEK293 cells, 100 and 300 nM) of the same sequence?
Answer: The cAMP levels was “dose dependent increase in cAMP levels”.

Question: What about the “Effect on NDP-MSH induction of cAMP” value (MC1R [10]; 100 nM) of the same sequence?
Answer: Its value is “lower the agonist induction of cAMP”.

Question: And the cAMP signal (MC1R [10]; up to 100 nM)?
Answer: Its cAMP signal is “no cAMP signal”.

Question: What about the “Agonist efficacy (in words)” value (hMC1R [11]) of the same sequence?
Answer: Its value is “Full agonist activity”.
